Counter-ions that a name gives are not always drawn.
Assay: Release of other medicinal substances from the same preparation
Type: physicochemical
Settings: in 1 hour

CC(=O)Nc1ccc(O)cc1 [paracetamol]
release from the same preparation: 90%

CN/C(=N/CCSCc1nc[nH]c1C)NC#N [cimetidine hydrochloride]
release from the same preparation: 90%
